Drawing on patent US9834550B2, “Pyridopyrimidinone compounds for modulating the catalytic activity of histone lysine demethylases (KDMs)” (Dong-A Socio Holdings Co., Ltd., priority 2014, dated 2017), this text covers inhibition for 26 compounds.

Where only a bound is given, the exact number is not on record here.

For the test, the target named is T1, Recombinant human JARID1B/KDM5B (Homo sapiens, UniProt Q9UGL1).
T1 construct: purchased Active Motif 31432; host or cells: Sf9 insect cells
The test is described as follows: LANCE Ultra TR-FRET demethylase assay with FLAG-tagged JARID1B. As to conditions: 100 nM compound; 500 nM biotinylated H3K4me3 peptide substrate. The class given is biochemical. The source says: FLAG-tagged JARID1B (also known as KDM5B) protein was screened against more than 170 compounds. For this compound screening, LANCE Ultra time-resolved fluorescence resonance energy transfer (TR-FRET) assay was employed using an europoium (Eu)-labeled antibody that can specifically recognize mono- or dimethylated peptides (H3K4me2/1) and ULight-streptavidin (ULight-SA), a small molecule fluorescent dye. When irradiated at 340 nm, the energy from the Eu donor is transferred to the ULight acceptor dye which, in turn, emits light primarily at 665 nm. The ratio between the intensity of primary emission at 665 nm and that of secondary emission at 590 nm was used to quantify the level of lysine methylation. As JARID1B removes more methyl moieties from tri-methylated substrate peptides (H3K4me3), the ratio increases until the enzyme reaction is terminated. In case, therefore, the compounds disrupt the enzymatic activity completely, the ratio becomes equal to a background value.
Recombinant human JARID1B/KDM5B (accession number NP_006609) of molecular weight 179.9 KDa was expressed in Sf9 insect cells and contains an N-terminal FLAG tag. The enzyme was obtained from Active Motif (Catalog No. 31432). The tri-methylated histone substrate peptide of purity greater than 95% was a synthetic peptide in which the first 21 amino acids correspond to the human histone H3 sequence with three extra amino acids and a biotin motif (GGK-biotin) linked to the C-terminus [sequence: ART-K (Me3)-QTARKSTGGKAPRKQLA-GGK-biotin-OH], (AnaSpec, Fremont, Calif. Catalog. No. ANA-1413). The reference inhibitory compound tranylcypromine (or trans-2-phenylcyclopropylamine hydrochloride, also known as, 2-PCPA) was purchased from Sigma (St. Louis, Mo. Cat. no. P8511). ULight-labeled streptavidin (ULight-SA, Catalog no. TRF0102), Eu-W1024-labeled anti-methyl-Histone H3 Lysine 4 (H3K4me1-2) Antibody (Catalog no. TRF0402), and LANCE detection buffer 10× (Catalog no. CR97-100) were obtained from PerkinElmer (Montreal, Quebec, Canada). The TR-FRET experiments were carried out in white, low-volume 384-wellplates purchased from PerkinElmer (ProxiPlate-384 Plus, Catalog no. 6008280).
The TR-FRET signal was measured in the presence both of the bio-H3K4me3 peptide and FLAG-JARID1B by detecting any H3K4me2/1 peptide produced in the assay system. Assays using only the bio-H3K4me2 peptide were served as a positive control. Robust enzymatic progressions were observed by using JARID1B at concentrations ranging from 10 to 30 nM. In a typical TR-FRET experiment, JARID1B was pre-incubated with or without 20 uM, 1 uM, or 0.1 uM of test-compounds (containing 1% DMSO final) for […]. The enzymatic reactions were initiated by the addition of 500 nM biotinylated H3K4me3 peptide substrate plus 500 uM of 2-OG, 25 uM Fe(II) and 2 mM ascorbate. The reaction buffer also contained 50 mM Hepes (pH7.5), 0.01% (v/v) Tween 20, and 50 mM NaCl. The reaction mixture was incubated for […] at room temperature before reading on an EnVision plate reader (PerkinElmer, Waltham, Mass.).

T1 sequence (Q9UGL1 whole entry): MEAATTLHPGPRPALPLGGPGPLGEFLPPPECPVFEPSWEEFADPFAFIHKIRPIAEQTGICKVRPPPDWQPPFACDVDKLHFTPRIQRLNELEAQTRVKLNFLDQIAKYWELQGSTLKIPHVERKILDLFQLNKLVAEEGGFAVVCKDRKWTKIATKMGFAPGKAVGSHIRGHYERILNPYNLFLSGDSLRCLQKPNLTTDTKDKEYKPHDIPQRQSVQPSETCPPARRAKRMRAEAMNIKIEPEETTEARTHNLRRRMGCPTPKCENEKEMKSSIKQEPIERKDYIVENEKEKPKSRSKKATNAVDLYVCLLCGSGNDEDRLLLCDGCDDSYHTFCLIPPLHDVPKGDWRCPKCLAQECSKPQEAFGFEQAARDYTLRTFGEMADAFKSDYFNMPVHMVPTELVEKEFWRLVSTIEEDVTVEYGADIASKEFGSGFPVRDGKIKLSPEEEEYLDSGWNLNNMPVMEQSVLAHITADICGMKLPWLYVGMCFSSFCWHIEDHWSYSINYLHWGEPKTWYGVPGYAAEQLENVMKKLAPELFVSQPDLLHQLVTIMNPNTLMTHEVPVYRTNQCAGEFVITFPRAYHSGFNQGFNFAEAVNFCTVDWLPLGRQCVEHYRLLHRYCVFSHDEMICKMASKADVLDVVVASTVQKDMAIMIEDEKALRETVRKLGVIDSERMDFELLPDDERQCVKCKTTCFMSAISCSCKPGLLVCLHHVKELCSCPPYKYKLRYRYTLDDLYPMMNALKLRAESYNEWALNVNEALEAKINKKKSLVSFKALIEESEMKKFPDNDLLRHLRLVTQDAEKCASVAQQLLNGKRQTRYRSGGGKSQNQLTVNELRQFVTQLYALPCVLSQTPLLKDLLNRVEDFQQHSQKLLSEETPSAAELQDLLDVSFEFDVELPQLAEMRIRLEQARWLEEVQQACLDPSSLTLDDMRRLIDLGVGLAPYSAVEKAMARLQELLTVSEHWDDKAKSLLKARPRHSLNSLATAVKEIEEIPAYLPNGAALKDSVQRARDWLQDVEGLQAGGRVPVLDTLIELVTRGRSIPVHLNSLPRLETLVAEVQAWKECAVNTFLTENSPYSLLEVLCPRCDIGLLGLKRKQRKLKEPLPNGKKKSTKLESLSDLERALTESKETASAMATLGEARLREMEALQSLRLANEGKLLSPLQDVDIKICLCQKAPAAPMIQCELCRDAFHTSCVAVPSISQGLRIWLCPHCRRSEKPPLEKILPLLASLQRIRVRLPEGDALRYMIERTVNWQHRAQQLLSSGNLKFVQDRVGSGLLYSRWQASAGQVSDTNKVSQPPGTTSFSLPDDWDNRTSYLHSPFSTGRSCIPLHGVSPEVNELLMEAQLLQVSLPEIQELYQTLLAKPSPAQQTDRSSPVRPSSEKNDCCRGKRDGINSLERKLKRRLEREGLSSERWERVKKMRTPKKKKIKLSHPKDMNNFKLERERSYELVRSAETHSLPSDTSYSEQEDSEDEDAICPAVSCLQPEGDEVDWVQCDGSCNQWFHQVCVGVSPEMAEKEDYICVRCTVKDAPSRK

The inhibition is the drop in the measured response relative to a control, in per cent. On to `O=c1[nH]c(COc2ccc(Cl)c(F)c2)nc2c(CNCC3CCNCC3)nccc12` [Example 127, 2-((4-chloro-3-fluorophenoxy)methyl)-8-(((piperidin-4-ylmethyl)amino)methyl)pyrido[3,4-d]pyrimidin-4(3H)-one], for which the inhibition at 0.1 µM was 20 to 50%.

Turning to `N#Cc1ccccc1OCc1nc2c(CNCC3CCNCC3)nccc2c(=O)[nH]1` [Example 128, 2-((4-oxo-8-(((piperidin-4-ylmethyl)amino)methyl)-3,4-dihydropyrido[3,4-d]pyrimidin-2-yl)methoxy)benzonitrile], the inhibition at 0.1 µM was in the range of 20 to 50%.

As for `N#Cc1ccc(OCc2nc3c(CNCC4CCNCC4)nccc3c(=O)[nH]2)cc1` [Example 129, 4-((4-oxo-8-(((piperidin-4-ylmethyl)amino)methyl)-3,4-dihydropyrido[3,4-d]pyrimidin-2-yl)methoxy)benzonitrile], the inhibition at 0.1 µM fell in the range of 20 to 50%.

For `Cc1ccc(Cl)c(OCc2nc3c(CNCC4CCNCC4)nccc3c(=O)[nH]2)c1` [Example 130, 2-((2-chloro-5-methylphenoxy)methyl)-8-(((piperidin-4-ylmethyl)amino)methyl)pyrido[3,4-d]pyrimidin-4(3H)-one], the inhibition at 0.1 µM was above 50%.

Consider `O=c1[nH]c(COc2cnc(Br)cn2)nc2c(CNCC3CCNCC3)nccc12` [Example 131, 2-(((5-bromopyrazin-2-yl)oxy)methyl)-8-(((piperidin-4-ylmethyl)amino)methyl)pyrido[3,4-d]pyrimidin-4(3H)-one], for which the inhibition at 0.1 µM was in the range of 20 to 50%.

With `O=c1[nH]c(COc2cccc(Cl)c2)nc2c(CNCC3CCNCC3)nccc12` [Example 132, 2-((3-chlorophenoxy)methyl)-8-(((piperidin-4-ylmethyl)amino)methyl)pyrido[3,4-d]pyrimidin-4(3H)-one], the inhibition at 0.1 µM is above 50%.

For `O=c1[nH]c(COc2ccccn2)nc2c(CNCC3CCNCC3)nccc12` [Example 133, 8-(((piperidin-4-ylmethyl)amino)methyl)-2-((pyridin-2-yloxy)methyl)pyrido[3,4-d]pyrimidin-4(3H)-one], the inhibition at 0.1 µM is below 20%.

As to `Cc1cc(OCc2nc3c(CNCC4CCNCC4)nccc3c(=O)[nH]2)ccc1Cl` [Example 134, 2-((4-chloro-3-methylphenoxy)methyl)-8-(((piperidin-4-ylmethyl)amino)methyl)pyrido[3,4-d]pyrimidin-4(3H)-one], the inhibition at 0.1 µM lay in the range of 20 to 50%.

Take `CCc1ccc(OCc2nc3c(CNCC4CCNCC4)nccc3c(=O)[nH]2)cc1` [Example 135, 2-((4-ethylphenoxy)methyl)-8-(((piperidin-4-ylmethyl)amino)methyl)pyrido[3,4-d]pyrimidin-4(3H)-one]: the inhibition at 0.1 µM was 20 to 50%.

Regarding `Cc1ccc(OCc2nc3c(CNCC4CCNCC4)nccc3c(=O)[nH]2)cc1C` [Example 136, 2-((3,4-dimethylphenoxy)methyl)-8-(((piperidin-4-ylmethyl)amino)methyl)pyrido[3,4-d]pyrimidin-4(3H)-one], the inhibition at 0.1 µM was in the range of 20 to 50%.

Regarding `Cc1cc(Cl)ccc1OCc1nc2c(CNCC3CCNCC3)nccc2c(=O)[nH]1` [Example 137, 2-((4-chloro-2-methylphenoxy)methyl)-8-(((piperidin-4-ylmethyl)amino)methyl)pyrido[3,4-d]pyrimidin-4(3H)-one], the inhibition at 0.1 µM was 20 to 50%.

With `N#Cc1cccc(OCc2nc3c(CNCC4CCNCC4)nccc3c(=O)[nH]2)c1` [Example 138, 3-((4-oxo-8-(((piperidin-4-ylmethyl)amino)methyl)-3,4-dihydropyrido[3,4-d]pyrimidin-2-yl)methoxy)benzonitrile], the inhibition at 0.1 µM is 20 to 50%.

For the compound `O=c1[nH]c(COc2ccc3c(c2)CCC3)nc2c(CNCC3CCNCC3)nccc12` [Example 139, 2-(((2,3-dihydro-1H-inden-5-yl)oxy)methyl)-8-(((piperidin-4-ylmethyl)amino)methyl)pyrido[3,4-d]pyrimidin-4(3H)-one], the inhibition at 0.1 µM fell in the range of 20 to 50%.

As to `O=c1[nH]c(COc2ccc(C3CCCC3)cc2)nc2c(CNCC3CCNCC3)nccc12` [Example 140, 2-((4-cyclopentylphenoxy)methyl)-8-(((piperidin-4-ylmethyl)amino)methyl)pyrido[3,4-d]pyrimidin-4(3H)-one], the inhibition at 0.1 µM lay in the range of 20 to 50%.

As for `CC(c1ccccc1)c1ccc(OCc2nc3c(CNCC4CCNCC4)nccc3c(=O)[nH]2)cc1` (centres unmarked) [Example 141, 2-((4-(1-phenylethyl)phenoxy)methyl)-8-(((piperidin-4-ylmethyl)amino)methyl)pyrido[3,4-d]pyrimidin-4(3H)-one], the inhibition at 0.1 µM was 20 to 50%.

For `CCN1CCC(CNCc2nccc3c(=O)[nH]c(COc4ccc(Cc5ccccc5)cc4)nc23)C1` (centres unmarked) [Example 142, 2-((4-benzylphenoxy)methyl)-8-((((1-ethylpyrrolidin-3-yl)methyl)amino)methyl)pyrido[3,4-d]pyrimidin-4(3H)-one], the inhibition at 0.1 µM is above 50%.

As for `O=c1[nH]c(COc2ccc(Cc3ccccc3)cc2)nc2c(CNCCCCN3CCCC3)nccc12` [Example 143, 2-((4-benzylphenoxy)methyl)-8-(((4-(pyrrolidin-1-yl)butyl)amino)methyl)pyrido[3,4-d]pyrimidin-4(3H)-one], the inhibition at 0.1 µM was 20 to 50%.

For the compound `CCN1CCC[C@@H]1CNCc1nccc2c(=O)[nH]c(COc3ccc(Cc4ccccc4)cc3)nc12` [Example 145, (R)-2-((4-benzylphenoxy)methyl)-8-((((1-ethylpyrrolidin-2-yl)methyl)amino)methyl)pyrido[3,4-d]pyrimidin-4(3H)-one], the inhibition at 0.1 µM was 20 to 50%.

As for `CCN1CCC[C@H]1CNCc1nccc2c(=O)[nH]c(COc3ccc(Cc4ccccc4)cc3)nc12` [Example 146, (S)-2-((4-benzylphenoxy)methyl)-8-((((1-ethylpyrrolidin-2-yl)methyl)amino)methyl)pyrido[3,4-d]pyrimidin-4(3H)-one], the inhibition at 0.1 µM fell in the range of 20 to 50%.

In the case of `O=c1[nH]c(COc2ccc(Cc3ccccc3)cc2)nc2c(CNCC3CNC3)nccc12` [Example 147, 8-(((azetidin-3-ylmethyl)amino)methyl)-2-((4-benzylphenoxy)methyl)pyrido[3,4-d]pyrimidin-4(3H)-one], the inhibition at 0.1 µM is above 50%.

On to `O=c1[nH]c(COc2ccc(Cc3ccccc3)cc2)nc2c(CNC[C@H]3CCCO3)nccc12` [Example 148, (R)-2-((4-benzylphenoxy)methyl)-8-((((tetrahydrofuran-2-yl)methyl)amino)methyl)pyrido[3,4-d]pyrimidin-4(3H)-one], for which the inhibition at 0.1 µM was 20 to 50%.

With `O=c1[nH]c(COc2ccc(Cc3ccccc3)cc2)nc2c(CNCC3CCOCC3)nccc12` [Example 149, 2-((4-benzylphenoxy)methyl)-8-((((tetrahydro-2H-pyran-4-yl)methyl)amino)methyl)pyrido[3,4-d]pyrimidin-4(3H)-one], the inhibition at 0.1 µM was above 50%.

As for `O=c1[nH]c(COc2ccc(Cc3ccccc3)cc2)nc2c(CNC[C@H]3CCNC3)nccc12` [Example 150, (S)-2-((4-benzylphenoxy)methyl)-8-(((pyrrolidin-3-ylmethyl)amino)methyl)pyrido[3,4-d]pyrimidin-4(3H)-one], the inhibition at 0.1 µM was above 50%.

For `O=c1[nH]c(COc2ccc(Cc3ccccc3)cc2)nc2c(CNC[C@@H]3CCNC3)nccc12` [Example 151, (R)-2-((4-benzylphenoxy)methyl)-8-(((pyrrolidin-3-ylmethyl)amino)methyl)pyrido[3,4-d]pyrimidin-4(3H)-one], the inhibition at 0.1 µM lay in the range of 20 to 50%.

`CN1CCC(CNCc2nccc3c(=O)[nH]c(COc4ccc(Cc5ccccc5)cc4)nc23)CC1` [Example 152, 2-((4-benzylphenoxy)methyl)-8-((((1-methylpiperidin-4-yl)methyl)amino)methyl)pyrido[3,4-d]pyrimidin-4(3H)-one]: the inhibition at 0.1 µM was above 50%.

In the case of `O=c1[nH]c(COc2ccc(Cc3ccccc3)cc2)nc2c(CNC[C@H]3CCCNC3)nccc12` [Example 153, (S)-2-((4-benzylphenoxy)methyl)-8-(((piperidin-3-ylmethyl)amino)methyl)pyrido[3,4-d]pyrimidin-4(3H)-one], the inhibition at 0.1 µM was above 50%.
